How the values were obtained:
Assay type in all cases: in vivo
[1] = system: barnyardgrass (Echinochloa crus-galli); test: Test C pre-/postemergence greenhouse test, plant response rating 0-100
In short: (§1)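 Plants were scored visually against controls 13–15 days after treatment on a 0–100 scale, 100 meaning complete control. Test chemicals, formulated in surfactant-containing non-phytotoxic solvent, went preemergence onto seeds in loam–sand blend or postemergence onto 1- to 4-leaf plants (2–18 cm) grown in peat-based mix.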

[2] = system: oilseed rape (Brassica napus); test: as above
In short: as §1

[3] = system: waterhemp (common waterhemp, Amaranthus rudis); test: as above
In short: as §1

[4] = system: goosegrass (Eleusine indica); test: Test E pre-/postemergence greenhouse test, plant response rating 0-100; conditions: Preemergence, scale 0 to 100
[5] = system: ragweed (common ragweed, Ambrosia elatior); test: as above; conditions: Preemergence, scale 0 to 100
In short: (§2)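 Rated visually against controls 14-21 days after treatment on a 0-100 scale (100 = complete control). Pre- and postemergence sprays used a non-phytotoxic solvent mixture with surfactant. Preemergence seeds were in silt loam; postemergence plants were in peat-based medium at the 1- to 4-leaf stage (2-18 cm).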

[6] = system: smartweed (ladysthumb smartweed, Polygonum persicaria); test: as above; conditions: Postemergence, scale 0 to 100
[7] = system: surinam grass (Brachiaria decumbens); test: as above; conditions: Preemergence, scale 0 to 100
In short: as §2

[8] = system: velvetleaf (Abutilon theophrasti); test: as above; conditions: Preemergence, scale 0 to 100
In short: as §2

[9] = system: smartweed (ladysthumb smartweed, Polygonum persicaria); test: as above; conditions: Preemergence, scale 0 to 100
[10] = Postemergence, 125 g ai/ha, scale 0 to 100
[11] = Postemergence, 250 g ai/ha, scale 0 to 100
[12] = Postemergence, 500 g ai/ha, scale 0 to 100

O=C(c1ccccc1)c1cn(S(=O)(=O)C(F)(F)F)nc1-c1cc(Cl)cc(Cl)c1 [Compound 2]
Plant response rating (0 to 100), Barnyardgrass ([1]; Postemergence, 62 g ai/ha): 0 | Plant response rating, Barnyardgrass [1, 10]: 0 | Plant response rating, Barnyardgrass [1, 11]: 0 | Plant response rating, Barnyardgrass [1, 12]: 0 | Plant response rating (0 to 100), Oilseed Rape ([2]; Postemergence, 62 g ai/ha): 70 | Plant response rating (0 to 100), Oilseed Rape ([2]; Postemergence, 125 g ai/ha): 70 | Plant response rating, Oilseed Rape [2, 11]: 90 | Plant response rating, Oilseed Rape [2, 12]: 90 | Plant response rating (0 to 100), Waterhemp ([3]; Postemergence, 62 g ai/ha): 85 | Plant response rating (0 to 100), Waterhemp ([3]; Postemergence, 125 g ai/ha): 85 | Plant response rating, Waterhemp [3, 11]: 100 | Plant response rating, Waterhemp [3, 12]: 100 | Plant response rating, Waterhemp ([3]; Preemergence, 0 to 100 scale (0 no effect, 100 complete control), rate 500 g ai/ha): 100 | Goosegrass plant response rating ([4]; 31 g ai/ha): 0 | Goosegrass plant response rating ([4]; 62 g ai/ha): 0 | Goosegrass plant response rating ([4]; 125 g ai/ha): 0 | Goosegrass plant response rating ([4]; 250 g ai/ha): 0 | Goosegrass plant response rating ([4]; 500 g ai/ha): 0 | Ragweed plant response rating ([5]; 31 g ai/ha): 0 | Ragweed plant response rating ([5]; 125 g ai/ha): 0 | Ragweed plant response rating ([5]; 250 g ai/ha): 100 | Ragweed plant response rating ([5]; 500 g ai/ha): 100 | Plant response rating, Smartweed ([6]; 31 g ai/ha): 0 | Plant response rating, Smartweed ([6]; 62 g ai/ha): 65 | Plant response rating, Smartweed ([6]; 125 g ai/ha): 75 | Plant response rating, Smartweed ([6]; 250 g ai/ha): 95 | Surinam Grass plant response rating ([7]; 31 g ai/ha): 0 | Surinam Grass plant response rating ([7]; 62 g ai/ha): 0 | Surinam Grass plant response rating ([7]; 125 g ai/ha): 0 | Surinam Grass plant response rating ([7]; 250 g ai/ha): 0 | Surinam Grass plant response rating ([7]; 500 g ai/ha): 0 | Velvetleaf plant response rating ([8]; 31 g ai/ha): 0 | Velvetleaf plant response rating ([8]; 62 g ai/ha): 0 | Velvetleaf plant response rating ([8]; 125 g ai/ha): 0 | Velvetleaf plant response rating ([8]; 250 g ai/ha): 0 | Velvetleaf plant response rating ([8]; 500 g ai/ha): 100 | Smartweed plant response rating ([9]; 31 g ai/ha): 0 | Smartweed plant response rating ([9]; 125 g ai/ha): 0 | Smartweed plant response rating ([9]; 250 g ai/ha): 0

O=C(c1ccccc1)c1cn(CO)nc1-c1cc(Cl)cc(Cl)c1 [Compound 15, [3-(3,5-dichlorophenyl)-1-(hydroxymethyl)-1H-pyrazol-4-yl]phenylmethanone]
Plant response rating (0 to 100), Barnyardgrass ([1]; Postemergence, 62 g ai/ha): 0 | Plant response rating, Barnyardgrass [1, 10]: 0 | Plant response rating, Barnyardgrass [1, 11]: 0 | Plant response rating, Barnyardgrass [1, 12]: 0 | Plant response rating, Barnyardgrass ([1]; Preemergence, 31 g ai/ha): 0 | Plant response rating, Barnyardgrass ([1]; Preemergence, 62 g ai/ha): 0 | Plant response rating, Barnyardgrass ([1]; Preemergence, 125 g ai/ha): 0 | Plant response rating, Barnyardgrass ([1]; Preemergence, 250 g ai/ha): 0 | Plant response rating (0 to 100), Oilseed Rape ([2]; Postemergence, 62 g ai/ha): 60 | Plant response rating (0 to 100), Oilseed Rape ([2]; Postemergence, 125 g ai/ha): 90 | Plant response rating, Oilseed Rape [2, 11]: 90 | Plant response rating, Oilseed Rape [2, 12]: 90 | Plant response rating, Oilseed Rape ([2]; Preemergence, 31 g ai/ha): 0 | Plant response rating, Oilseed Rape ([2]; Preemergence, 62 g ai/ha): 50 | Plant response rating, Oilseed Rape ([2]; Preemergence, 125 g ai/ha): 50 | Plant response rating, Oilseed Rape ([2]; Preemergence, 250 g ai/ha): 80 | Plant response rating (0 to 100), Waterhemp ([3]; Postemergence, 62 g ai/ha): 65 | Plant response rating (0 to 100), Waterhemp ([3]; Postemergence, 125 g ai/ha): 95 | Plant response rating, Waterhemp [3, 11]: 100 | Plant response rating, Waterhemp [3, 12]: 100 | Plant response rating, Waterhemp ([3]; Preemergence, 62 g ai/ha): 100 | Plant response rating, Waterhemp ([3]; Preemergence, 125 g ai/ha): 100 | Plant response rating, Waterhemp ([3]; Preemergence, 250 g ai/ha): 100 | Goosegrass plant response rating ([4]; 31 g ai/ha): 0 | Goosegrass plant response rating ([4]; 125 g ai/ha): 0 | Goosegrass plant response rating ([4]; 250 g ai/ha): 0 | Goosegrass plant response rating ([4]; 500 g ai/ha): 0 | Ragweed plant response rating ([5]; 31 g ai/ha): 0 | Ragweed plant response rating ([5]; 62 g ai/ha): 0 | Ragweed plant response rating ([5]; 125 g ai/ha): 0 | Ragweed plant response rating ([5]; 250 g ai/ha): 95 | Ragweed plant response rating ([5]; 500 g ai/ha): 100 | Plant response rating, Smartweed ([6]; 31 g ai/ha): 0 | Plant response rating, Smartweed ([6]; 62 g ai/ha): 75 | Surinam Grass plant response rating ([7]; 31 g ai/ha): 0 | Surinam Grass plant response rating ([7]; 62 g ai/ha): 0 | Surinam Grass plant response rating ([7]; 125 g ai/ha): 0 | Surinam Grass plant response rating ([7]; 250 g ai/ha): 0 | Surinam Grass plant response rating ([7]; 500 g ai/ha): 0 | Velvetleaf plant response rating ([8]; 31 g ai/ha): 20 | Velvetleaf plant response rating ([8]; 62 g ai/ha): 25 | Velvetleaf plant response rating ([8]; 125 g ai/ha): 35 | Velvetleaf plant response rating ([8]; 250 g ai/ha): 65 | Velvetleaf plant response rating ([8]; 500 g ai/ha): 100 | Smartweed plant response rating ([9]; 31 g ai/ha): 0 | Smartweed plant response rating ([9]; 62 g ai/ha): 0 | Smartweed plant response rating ([9]; 125 g ai/ha): 0 | Smartweed plant response rating ([9]; 250 g ai/ha): 100 | Smartweed plant response rating ([9]; 500 g ai/ha): 100

— US10167262B2, “Herbicidal substituted 3-arylpyrazoles” (FMC CORPORATION, priority 2014, dated 2019)
